Tested on: Mouse Skin Phosphodiesterase (cyclic-AMP phosphodiesterase)
Assay: mouse skin phosphodiesterase (PDE) inhibition test
Assay type: biochemical
Set-up: key to Mouse Skin Phosphodiesterase: Active: A compound is considered active if it inhibits more than theophylline, that is, to 50% of control at 1 mM concentration of compound, or to 80% of control of 0.05 mM concentration of compound
Conditions: for Mouse Skin Phosphodiesterase: hairless mouse epidermal PDE, 3H-cyclic AMP substrate, final concentration of test compounds 10 ug./ml

SMILES | Mouse Skin Phosphodiesterase | inhibition of skin phosphodiesterase, % of control (0.05 mM concentration of compound) | inhibition of skin phosphodiesterase, % of control (1 mM concentration of compound)
CCCc1n[nH]c(=O)c2nccn12 [5-n-propyl-imidazo[1,2-d]-as-triazin-8(7H)-one] | Active |  | 
Cn1c(=O)c2[nH]cnc2n(C)c1=O [theophylline] |  | 80 % of control | 50 % of control
O=c1[nH]nc(-c2ccccc2)n2ccnc12 [5-phenyl-imidazo[1,2-d]-as-triazin-8(7H)-one] | Active |  | 

From patent US4096257A, “Substituted imidazo [1,2-d]-as-triazines” (American Cyanamid Company, priority 1977, dated 1978)
